Results on one compound are retold here after patent US7829576B2 (priority 2008, dated 2010).

Usually IC50 stands for the concentration at which inhibition is half-maximal. Usually inhibition stands for the relative decrease from the control value, in per cent. A word on the ED50: it is the dose that gives a 50% effect, or the effect in half of the subjects.

The structures appear in SMILES notation. Entries after “also recorded” stand apart in the source; their conditions may differ.

For data set [1], the target named is T1, CYP2D6 (Homo sapiens, UniProt P10635).
T1 construct: purchased BD Bioscience
As to the kind of experiment: CYP2D6 inhibition screening, recombinant enzyme, MAMC substrate. In kind it is in vitro ADME. The procedure:
Protocol. […] The source of the enzyme was microsomes containing human recombinant CYP2D6 obtained from BD Bioscience. Conversion of MAMC to 7-hydroxy-4-(aminomethyl)coumarin was measured using a PerkinElmer Fusion with a 390 nm excitation filter and a 460 nm emission filter.

The subject of data set [2] is FCA-treated rats. The data set is described as follows: FCA-induced mechanical hyperalgesia (inflammatory pain). Format: in vivo, rat. The procedure: Protocol. […] For the assay, the methods of DeHaven-Hudkins et al., 1999, J. Pharmacol. Exp. Ther. 289:494-502 were used to determine mechanical hyperalgesia in rats 24 hours after intraplantar administration of 150 μL Freund's Complete Adjuvant (FCA). To determine paw pressure thresholds, the rats were lightly restrained in a gauze wrap and pressure was applied to the dorsal surface of the inflamed and uninflamed paw with a conical piston using a pressure analgesia apparatus (Stoelting Instruments, Wood Dale, Ill.). […] Paw pressure thresholds were determined before and at specified times after drug treatment. All test groups contained at least six animals. Protocol. A sample of (±)-beloxepin was prepared by milling the isolated (+)-beloxepin and (−)-beloxepin enantiomers together, bringing them up in solvent, and then removing the solvent (“Lot 9”). In this experiment, 30 mg/kg of (±)-beloxepin (“Lot 7”) or 30 mg/kg of the reconstituted racemic mixture (Lot 9) was administered in rats treated with FCA for 24 hours. Thirty minutes after treatment with vehicle, (±)-beloxepin, or reconstituted racemic mixture, paw pressure thresholds were determined. Thirty minutes is the time of peak mechanical antihyperalgesia of (±)-beloxepin.

The test system of data set [3] is male ICR mice. As to the kind of experiment: Acetic acid-induced writhing (visceral pain). In kind it is in vivo, mouse. The protocol:
Protocol. […] Five minutes after treatment with acetic acid, the number of writhes was counted for 10 min. A writhe is defined as the extension of both front and hind limbs with a concave stretch of the abdomen. The mean number of writhes was determined for each treatment group and the percent inhibition of the vehicle response was calculated using the following formula: […]
Background: Writhing tests count abdominal constrictions after an irritant is injected.

For data set [4], the system named is L5 SNL rats. The data set is described as follows: L5 SNL model of neuropathic pain, tactile allodynia (von Frey). Format: in vivo, rat. The settings on record: for antiallodynic effect over time, oral: 60 mg/kg PO.
Data set [5] concerns major depression. The settings on record: subsequent clinical trials; cited from earlier work.
Data set [6] relates to animal models of depression. The settings on record: preclinical models of depression; cited from earlier work.

T1 sequence (P10635 whole entry): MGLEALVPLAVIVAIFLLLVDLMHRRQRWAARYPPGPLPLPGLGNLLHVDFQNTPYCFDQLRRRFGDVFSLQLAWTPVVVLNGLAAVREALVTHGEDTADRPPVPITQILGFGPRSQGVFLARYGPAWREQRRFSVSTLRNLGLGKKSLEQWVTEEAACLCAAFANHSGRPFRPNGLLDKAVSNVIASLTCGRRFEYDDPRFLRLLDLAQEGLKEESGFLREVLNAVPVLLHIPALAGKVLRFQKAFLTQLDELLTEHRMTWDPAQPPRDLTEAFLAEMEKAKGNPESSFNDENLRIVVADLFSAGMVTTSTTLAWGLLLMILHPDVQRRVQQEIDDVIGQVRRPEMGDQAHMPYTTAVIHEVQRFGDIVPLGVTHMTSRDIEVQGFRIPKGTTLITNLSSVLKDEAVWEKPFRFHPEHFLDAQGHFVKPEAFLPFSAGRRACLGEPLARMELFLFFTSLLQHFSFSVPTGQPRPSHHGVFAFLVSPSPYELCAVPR

In the case of `Cc1cccc2c1Oc1ccccc1C1(O)CCN(C)CC21` (racemic) [beloxepin, cis-1,2,3,4,4a,13b-hexahydro-2,10-dimethyldiben-[2,3:6,7]oxepino[4,5c]pyridine-4a-ol]], in data set [1] (human recombinant CYP2D6 microsomes, read-out: CYP2D6 IC50 (initial screening, MAMC substrate)), the IC50 was 536 nM. Besides, the inhibition at 10 µM in data set [1] (human, probe 7-methoxy-4-(aminomethyl)-coumarin (MAMC)) was determined as 97%. The “reversal of FCA-induced hyperalgesia” value in data set [2] (30 mg/kg (FIG. 7)) is on record as “nearly completely reversed hyperalgesia; also recorded: nearly complete reversal of hyperalgesia”. The mechanical antihyperalgesic efficacy in data set [2] (30 mg/kg IP, 24 hours after FCA, 30 min after treatment (FIG. 9)) was found to be 96±16%. For the same compound, the ED50 in data set [3] (Mus musculus, oral, 25 min prior to 0.6% acetic acid IP (FIG. 8), read-out: ED50 inhibition of acetic acid-induced writhing) is 13.3 mg/kg. In addition, the “inhibition of acetic acid-induced writhing, dose dependence” value in data set [3] (oral (FIG. 8)) was “dose-dependent fashion”. In addition, the “tactile antiallodynic effect, % of that observed with sham-operated animals” value in data set [4] (30 mg/kg IP (FIG. 2)) was approximately 100%. Further, in data set [4] (30 mg/kg IP (FIG. 3)), the observed mean threshold result is recorded as “approximately 15 g”. Further, the “maximal antiallodynic effect, % of the threshold of vehicle-treated rats” value in data set [4] (30 mg/kg IP, 14 days post surgery, 30 min post treatment (FIG. 1)) was 829%. Further, the “antiallodynic effect over time” value in data set [4] (30 mg/kg IP, 14 days post surgery, tested 30, 60, 120, 240 min) was “significant antiallodynia effects at the 30, 60 and 120 min time points”. The “antiallodynic effect, % of the threshold for vehicle-treated rats” value in data set [4] (30 mg/kg IP, 16 days post surgery, 30 min post treatment (FIG. 2)) was 852%. The “antiallodynic effect over time, oral” value in data set [4] (7 days post surgery, tested 30, 60, 120, 240 min (FIG. 10)) is “significant antiallodynic effects at all four time points”; in data set [4] (8 days post surgery, tested 30, 60, 120, 240 min (FIG. 4)), “significant and robust antiallodynic effects at the 30 and 60 min time points”. Also, the “antiallodynic effect compared with duloxetine, amitriptyline, reboxetine” value in data set [4] (each 30 mg/kg IP (FIG. 5)) is “the most effective of the compounds tested”. Further, the “efficacy for the treatment of major depression” value in data set [5] was “insufficient efficacy”. For the same compound, the “sedation, motor impairment, side effects in animal tests” value in data set [6] is “did not cause sedation, motor impairment or other untoward side effects”.
